Measurements from article PMC4222603, “Dual inhibition of HIV-1 replication by integrase-LEDGF allosteric inhibitors is predominant at the post-integration stage” (Retrovirology, 2013).

What was measured:
[1] = target: T1, IN-CCD/LEDGF-IBD interaction (Human immunodeficiency virus type 1 group M subtype B, UniProt P12497, F1332K); assay: HTRF-based CCD-IBD interaction assay; type: binding, HIV-1; conditions: Table 1
T1 construct: cloning the integrase region (residues 50 to 202, encoding the catalytic core domain); made in house
Source text: All HTRF® conjugated monoclonal antibodies were purchased from Cisbio Bioassays.

IN-LEDGF/p75 interaction = IN-LEDGF/p75 interaction (Human immunodeficiency virus type 1 group M subtype B, UniProt P12497); assay: biochemical
Procedure: IN-LEDGF HTRF® assay was performed in 384-well low volume black polystyrene plates (Corning) using IN-LEDGF assay buffer (25 mM Tris–HCl pH 7.4, 150 mM NaCl, 2 mM MgCl2, 0.4 M KF, 0.1% Igepal CA-630, 0.1% bovine serum albumin, 1 mM DTT). […] The HTRF ratio was converted to % inhibition and analyzed by fitting a sigmoidal dose–response equation with Hill slope to determine the IC50 of the compound.

[2] = target: T2, IN strand transfer activity (Human immunodeficiency virus type 1 group M subtype B, UniProt P12497); assay: IN strand transfer ELISA assay; type: biochemical, HIV-1
T2 construct: loaded on a Superdex 200 16/600 PG column (for full length IN); made in house
Procedure: IN strand transfer ELISA assay has been adapted from. […] 16 μL of IN mixture (20 mM HEPES pH 7.5, 10 mM MgCl2, 1 mM DTT, 0.50 μM His6-IN) was added. […] The reaction was stopped by addition of 60 μL stop mixture (20 mM Tris–HCl pH 7.6, 0.4 M NaCl, 10 mM Na2EDTA, 0.1 mg/mL salmon sperm DNA) and the volume transferred to Reacti-Bind high-binding capacity streptavidin-coated white plates (Thermo Scientific Pierce). After 1 h incubation at room temperature under gentle shaking, integrase and unjoined DNA were removed by three washes with 200 μL wash solution 1 (30 mM NaOH, 0.2 M NaCl, 1 mM Na2EDTA). 100 μL of 2000-fold diluted HRP-conjugated anti-DIG Fab (Roche Applied Science) was added and the plate was incubated for 1 h at 37°C. Unbound antibody was removed with wash solution 2 (PBS pH 7.4, 0.05% Tween-20, 0.1% bovine serum albumin), 100 μL of SuperSignal Femto ELISA substrate (Thermo Scientific Pierce) was added and chemiluminescence was immediately read in a PHERAstar Plus with LUM-plus module. The signal, converted to % inhibition, was analyzed by fitting a sigmoidal dose–response curve to determine IC50 and the inhibition plateau.

HxB2 HIV-1 = assay: Antiviral assay in MT4 cells infected with HxB2; type: cell-based; conditions: Human immunodeficiency virus 1, HXB2, MT4; Table 1; read-out: HxB2 EC50 (MT4 assays)
in vitro = type: cell-based; conditions: human
Procedure: Growth inhibition was monitored in a proliferating human T-cell line (MT-4) with different concentrations of compounds. ATP levels were quantified using the CellTiter-Glo® luminescent reagent (Promega) to measure the ability of a compound to inhibit cell growth, an indication of the compound’s cytotoxicity. Cytotoxicity was evaluated at either day 2 or day 5.

[3] = tested on: NL4-3 Protease L10R, M46I, L63P, V82T, I84V; assay: Antiviral assay on PI-resistant virus; type: cell-based, HIV-1; conditions: ratio EC50 resistant virus / wt virus
[4] = tested on: NL4-3 RT M41L, D67N, T69N, K70R, T215F, K219E; assay: Antiviral assay on NRTI-resistant virus; type: cell-based, HIV-1; conditions: ratio EC50 resistant virus / wt virus
[5] = tested on: NL4-3 Integrase G140S, Q148H; assay: Antiviral assay on INSTI-resistant virus; type: cell-based, HIV-1; conditions: ratio EC50 resistant virus / wt virus
[6] = tested on: NL4-3 HIV-1 virus bearing the T174I mutation in IN; assay: microbe, parasite or virus in culture; type: cell-based; conditions: Human immunodeficiency virus 1, NL43, read-out: EC50 on NL4-3 IN T174I mutant
[7] = target: T3, IN 3′ processing activity (Human immunodeficiency virus type 1 group M subtype B, UniProt P12497); assay: IN 3′ processing radioactive assay; type: biochemical, HIV-1; conditions: 0.01 to 100 μM
T3 construct: were carried out at 37°C with the full-length HIV-1 IN
Source text: Sequences of the different oligonucleotides (ODN) substrates are U5B: 5′-[…]-3′, U5A: 5′- […]-3′ and U5B-2: 5′-[…]-3′. ODNs were purchased from Eurogentec and further purified by electrophoresis in a denaturing 16% acrylamide/urea gel. For activity assays, ODNs (U5B and U5B-2) were radiolabelled with T4 polynucleotide kinase (New England Biolabs) and γ[^32-P]ATP (3000 Ci/mmol) (Amersham), and purified on a Sephadex G-10 column (GE Healthcare). Double-stranded ODNs (U5B with U5A and U5B-2 with U5A used for 3′-processing and strand transfer reactions, respectively) were obtained by mixing equimolar amounts of complementary strands in the presence of 100 mM NaCl.
IN activity assays – 3′-processing, strand transfer – were carried out at 37°C with the full-length HIV-1 IN, in a buffer containing 10 mM HEPES (pH 7.2), 1 mM DTT, 7.5 mM MgCl2 in the presence of 6.25 nM DNA (3′-processing) or 12.5 nM DNA (strand transfer) as described previously. For negative control, 100 mM Na2EDTA was added to the reaction before incubation. Products were separated by electrophoresis in denaturing 16% acrylamide/urea gels. Gels were analysed with a Molecular Dynamics STORM phosphoimager and quantified with ImageQuant™ 4.1 software.

IN NL4-3 wt = target: T4, IN NL4-3 wt (Human immunodeficiency virus type 1 group M subtype B, UniProt P12497); design: species or system HIV-1; conditions: pre-incubation with 100 μM compound
T4 construct: loaded on a Superdex 200 16/600 PG column (for full length IN); made in house
Procedure: SEC was performed with a Superdex 200 10/300 GL column (GE Healthcare) using a flow-rate of 0.4 mL/min in buffer containing 50 mM HEPES, pH 7.5, 1 M NaCl, 7 mM CHAPS, 5 mM MgCl2, 10 mM DTT, 10% glycerol at room temperature. […] Protein elution was monitored at 280 nm.

[8] = tested on: VSV-G-pseudotyped HIV-1 Δenv-Luc NL4-3; assay: Time-of-addition experiment, single-round infection of MT4 cells; type: cell-based; conditions: 25 μM (saturating)
[9] = tested on: NL4-3 IN T174I mutant virus; type: cell-based, HIV-1
viral protease = viral protease (Human immunodeficiency virus type 1 group M subtype B, UniProt P12497); assay: Viral protease inhibition (unpublished data); type: biochemical, HIV-1
IN-CCD wt = IN-CCD wt (Human immunodeficiency virus type 1 group M subtype B, UniProt P12497, F1332K)

Molecule `Cc1nc2c(c(-c3ccc4c(c3)CCCO4)c1C(OC(C)(C)C)C(=O)O)CCCC2` (stereo not drawn) [Mut101, 2-(tert-butoxy)-2-[4-(3,4-dihydro-2H-1-benzopyran-6-yl)-2-methyl-5,6,7,8-tetrahydroquinolin-3-yl]acetic acid] has an IC50 [1] of 230 nM, an IC50 (IN-LEDGF/p75 interaction; IC50 on IN-LEDGF interaction inhibition, LEDGF competition, increased value, highest LEDGF/p75 competing concentration (range 7.5 nM to 480 nM)) of 680 nM and an IC50 (IN-LEDGF/p75 interaction; IC50 on IN-LEDGF interaction inhibition, LEDGF competition, starting value, lowest LEDGF/p75 competing concentration (range 7.5 nM to 480 nM)) of 97 nM. For the same molecule, the IC50 (IN-LEDGF/p75 interaction; IN-LEDGF IC50, Table 1, HTRF, full length proteins) was 200 nM, the IC50 ([2]; Table 1, ELISA, read-out: IN ST IC50) was 170 nM and the “IN ST plateau (%)” value ([2]; inhibition plateau, concentrations up to 100 μM) was 66%. The EC50 (HxB2 HIV-1) was 92 nM, the CC50 (in vitro) was greater than 50000 nM and the “EC50 fold change PI” value [3] was 1. The “EC50 fold change NRTIs” value [4] was 1, the “EC50 fold change INSTIs” value [5] was 1 and the EC50 [6] was greater than 50000 nM. The “Maximum inhibition of IN 3′ processing” value [7] was 25-30%, the “Effect on IN wt oligomerization state (SEC)” value (IN NL4-3 wt) was “higher IN oligomerization state” and the “Behaviour in time-of-addition experiment” value [8] was “behaved as an inhibitor of integration”. The “Infectivity of NL4-3 IN T174I virus produced in presence of compound” value [9] was “insensitive”, the “Inhibition of viral protease” value (viral protease) was “does not inhibit viral protease” and the Kd (IN-CCD wt) was 120 nM.
